This is an account of results in PMC11148045, “Structural basis for recognition of 26RFa by the pyroglutamylated RFamide peptide receptor” (Cell Discovery, 2024).

No end group written: not given here.

Test [1] concerns the target T1, QRFPR (WT) (Homo sapiens, UniProt Q96P65).
T1 construct: expressed in transfected cells; host or cells: HEK293, transient transfection by electroporation
Put plainly: 26RFa-induced calcium mobilization, wild-type receptor. Format: cell-based. Conditions: HEK293, Fluo-4 AM, ex 485/em 525 nm, mean ± S.E.M., at least three independent experiments. How it is done:
(§1) The gene encoding the WT QRFPR, PrPRR, KISS1R, NPFF1R, or NPFF2R was subcloned into the pcDNA3.0 vector with the addition of an N-terminal HA tag. All of the mutations used for functional studies were generated by QuickChange PCR and verified by DNA sequencing.
(§2) HEK293 cells were obtained from ATCC (Manassas, VA, USA) and cultured in DMEM supplemented with 10% (v/v) FBS, 100 mg/L penicillin, and 100 mg/L streptomycin in 5% CO2 at 37 °C. For transient transfection, ~2.5 × 10^6 cells were mixed with 2 µg plasmids in 200 µL transfection buffer, and electroporation was carried out with a Scientz-2C electroporation apparatus (Scientz Biotech, Ningbo, China). The experiments were carried out 24 h after transfection.
For QRFPR, PrRPR, and KISS1R, HEK293 cells transfected with WT receptor or its mutants were seeded at a density of 4 × 10^4 per well into 96-well culture plates and incubated for 24 h at 37 °C in 5% CO2. […] After washing, cells were added with 50 μL HBSS and incubated at room temperature for 10 min, then 25 μL agonist buffer was dispensed into the well using a FlexStation III microplate reader (Molecular Devices), and intracellular calcium change was recorded at an excitation wavelength of 485 nm and an emission wavelength of 525 nm. EC50 and Emax values for each curve were calculated by Prism 8.0 software (GraphPad Software).

Test [2] relates to NPY1R and NPY4R. Conditions: cited from earlier work. The text has this: Specifically, Arg25 and Arg35 in 26RFa and NPY/PP are exposed to a conserved polar environment that includes residues E^45.52, T^5.39, and D/E^6.59 in QRFPR and NPYRs. However, subtle differences exist in the special binding interactions between these arginines and conserved polar residues (Fig. 4d–f). Side chains of Arg35 in NPY/PP form a conserved salt bridge with D^6.59 and a hydrogen bond with T^5.39 (NPY1R and NPY4R) or a salt bridge with E^45.52 (NPY2R) (Fig. 4e, f). In 26RFa, Arg25 retains its salt bridge with E203^45.52 but fails to build a salt bridge with E297^6.59 (Fig. 3b). It is p ... || Phe26 in 26RFa and Tyr36 in NPY/PP show distinct binding characteristics for QRFRP and NPYRs, respectively. […] (Fig. 4e). However, in NPY2R, this hydrogen bond is absent due to the substitution of glutamine with leucine at position 5.46, which lacks a hydrogen bond donor (Fig. 4c, f). Similarly, QRFPR also has a leucine at position 5.46, which cannot form a corresponding hydrogen bond with Phe26 in 26RFa. Furthermore, in contrast to the notable impact of Q^5.46 on the NP ...

Test [3] has as its target T2, QRFPR mutants (Homo sapiens, UniProt Q96P65, K189A).
T2 construct: expressed in transfected cells; host or cells: HEK293, transient transfection by electroporation
Put plainly: 26RFa-induced calcium mobilization, receptor mutants. Conditions: HEK293, QRFPR K189^ECL2A; HEK293, Fluo-4; mean ± S.E.M., n ≥ 3. Format: cell-based. Here is the method: as §1, §2
(§3) For QRFPR, PrRPR, and KISS1R, HEK293 cells transfected with WT receptor or its mutants were seeded at a density of 4 × 10^4 per well into 96-well culture plates and incubated for 24 h at 37 °C in 5% CO2. For NPFF1R and NPFF2R, plasmids were transfected into HEK293 cells stably expressing Gα16. On the next day, cells were incubated with 2 μmol/L Fluo-4 AM in HBSS supplemented with 5.6 mmol/L D-glucose and 250 μmol/L sulfinpyrazone at 37 °C for 45 min. After washing, cells were added with 50 μL HBSS and incubated at room temperature for 10 min, then 25 μL agonist buffer was dispensed into the well using a FlexStation III microplate reader (Molecular Devices), and intracellular calcium change was recorded at an excitation wavelength of 485 nm and an emission wavelength of 525 nm. EC50 and Emax values for each curve were calculated by Prism 8.0 software (GraphPad Software).
Background: A change in cytosolic calcium serves as a functional read-out for many receptors and channels.

Test [4] addresses T3, QRFPR mutants (Homo sapiens, UniProt Q96P65, W286A).
T3 construct: expressed in transfected cells; host or cells: HEK293, transient transfection by electroporation
The test is described as above. It is filed as cell-based. Conditions: HEK293, QRFPR W286^6.48A; HEK293, Fluo-4; mean ± S.E.M., n ≥ 3. How it is done:
as §1, §2, §3

The target of test [5] is T4, QRFPR mutants (Homo sapiens, UniProt Q96P65, M180A).
T4 construct: expressed in transfected cells; host or cells: HEK293, transient transfection by electroporation
The test is described as above. Format: cell-based. The following applies: HEK293, QRFPR M180^4.60A; HEK293, Fluo-4; mean ± S.E.M., n ≥ 3. How it is done:
as §1, §2, §3

Test [6] concerns the target T5, QRFPR mutants (Homo sapiens, UniProt Q96P65, V129A).
T5 construct: expressed in transfected cells; host or cells: HEK293, transient transfection by electroporation
Described as above. It is filed as cell-based. The following applies: HEK293, QRFPR V129^3.36A; HEK293, Fluo-4; mean ± S.E.M., n ≥ 3. How it is done:
as §1, §2, §3

For test [7], the target named is T6, QRFPR mutants (Homo sapiens, UniProt Q96P65, S126A).
T6 construct: expressed in transfected cells; host or cells: HEK293, transient transfection by electroporation
The test is described as above. Format: cell-based. Conditions: HEK293, QRFPR S126^3.33A; HEK293, Fluo-4; mean ± S.E.M., n ≥ 3. Here is the method:
as §1, §2, §3

Test [8] concerns the target T7, QRFPR mutants (Homo sapiens, UniProt Q96P65, D109A).
T7 construct: expressed in transfected cells; host or cells: HEK293, transient transfection by electroporation
The description is as above. It is filed as cell-based. The following applies: HEK293, QRFPR D109^2.67A; HEK293, Fluo-4; mean ± S.E.M., n ≥ 3. Here is the method:
as §1, §2, §3

The target of test [9] is T8, QRFPR mutants (Homo sapiens, UniProt Q96P65, Q105A).
T8 construct: expressed in transfected cells; host or cells: HEK293, transient transfection by electroporation
The description is as above. It is filed as cell-based. Conditions: HEK293, QRFPR Q105^2.63A; HEK293, Fluo-4; mean ± S.E.M., n ≥ 3. Here is the method:
as §1, §2, §3

For test [10], the target named is T9, QRFPR mutants (Homo sapiens, UniProt Q96P65, E203A).
T9 construct: expressed in transfected cells; host or cells: HEK293, transient transfection by electroporation
The description is as above. It is filed as cell-based. How it is done: as §1, §2, §3

In test [11] the target is T10, QRFPR mutants (Homo sapiens, UniProt Q96P65, Y214A).
T10 construct: expressed in transfected cells; host or cells: HEK293, transient transfection by electroporation
The description is as above. Format: cell-based. The following applies: HEK293, QRFPR Y214^5.38A; HEK293, Fluo-4; mean ± S.E.M., n ≥ 3. How it is done: as §1, §2, §3

The target of test [12] is T11, QRFPR mutants (Homo sapiens, UniProt Q96P65, W111A).
T11 construct: expressed in transfected cells; host or cells: HEK293, transient transfection by electroporation
The test is described as above. It is filed as cell-based. The following applies: HEK293, QRFPR W111^23.50A; HEK293, Fluo-4; mean ± S.E.M., n ≥ 3. How it is done: as §1, §2, §3

For test [13], the system named is QRFPR mutants. The description is as above. It is filed as cell-based, human. Here is the method: as §1, §2, §3
Test [14] concerns the target T12, QRFPR mutants (Homo sapiens, UniProt Q96P65, V101A).
T12 construct: expressed in transfected cells; host or cells: HEK293, transient transfection by electroporation
The test is described as above. It is filed as cell-based. The following applies: HEK293, QRFPR V101^2.59A; HEK293, Fluo-4; mean ± S.E.M., n ≥ 3. Here is the method: as §1, §2, §3

The target in test [15] is T13, QRFPR mutants (Homo sapiens, UniProt Q96P65, C201A).
T13 construct: expressed in transfected cells; host or cells: HEK293, transient transfection by electroporation
Described as above. Format: cell-based. Conditions: HEK293, QRFPR C201^ECL2A; HEK293, Fluo-4; mean ± S.E.M., n ≥ 3. How it is done: as §1, §2, §3

T9 sequence (Q96P65 whole entry E203A): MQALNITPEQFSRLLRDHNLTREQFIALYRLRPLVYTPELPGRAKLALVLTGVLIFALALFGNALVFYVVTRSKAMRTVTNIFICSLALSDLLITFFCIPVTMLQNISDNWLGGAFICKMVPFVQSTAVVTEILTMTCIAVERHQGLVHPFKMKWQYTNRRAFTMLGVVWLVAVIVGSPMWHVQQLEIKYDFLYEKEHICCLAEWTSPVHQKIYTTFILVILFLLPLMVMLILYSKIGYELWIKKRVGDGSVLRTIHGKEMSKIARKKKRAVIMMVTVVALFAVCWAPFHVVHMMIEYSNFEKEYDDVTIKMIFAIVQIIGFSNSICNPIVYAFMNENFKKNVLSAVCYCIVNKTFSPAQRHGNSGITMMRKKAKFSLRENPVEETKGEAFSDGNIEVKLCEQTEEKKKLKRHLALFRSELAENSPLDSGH
T3 sequence (Q96P65 whole entry W286A): as the sequence (Q96P65 whole entry E203A) above, with A203E, W286A counted along it
T10 sequence (Q96P65 whole entry Y214A): as the sequence (Q96P65 whole entry E203A) above, with A203E, Y214A counted along it
T4 sequence (Q96P65 whole entry M180A): as the sequence (Q96P65 whole entry E203A) above, with M180A, A203E counted along it
T1 sequence (Q96P65 whole entry): as the sequence (Q96P65 whole entry E203A) above, with A203E counted along it
T5 sequence (Q96P65 whole entry V129A): as the sequence (Q96P65 whole entry E203A) above, with V129A, A203E counted along it
T2 sequence (Q96P65 whole entry K189A): as the sequence (Q96P65 whole entry E203A) above, with K189A, A203E counted along it
T6 sequence (Q96P65 whole entry S126A): as the sequence (Q96P65 whole entry E203A) above, with S126A, A203E counted along it
T7 sequence (Q96P65 whole entry D109A): as the sequence (Q96P65 whole entry E203A) above, with D109A, A203E counted along it
T13 sequence (Q96P65 whole entry C201A): as the sequence (Q96P65 whole entry E203A) above, with C201A, A203E counted along it
T8 sequence (Q96P65 whole entry Q105A): as the sequence (Q96P65 whole entry E203A) above, with Q105A, A203E counted along it
T12 sequence (Q96P65 whole entry V101A): as the sequence (Q96P65 whole entry E203A) above, with V101A, A203E counted along it
T11 sequence (Q96P65 whole entry W111A): as the sequence (Q96P65 whole entry E203A) above, with W111A, A203E counted along it

The Emax is the greatest response seen or fitted, relative to the assay's reference. Consider ASGPLGTLAEELSSYSRRKGGFSFRF-NH2 [26RFa], for which the maximum response (Emax) in [1] came to 100 ± 1%; in test [3], 94.9 ± 1.6%; in [4], 1.8 ± 0.38%; in test [5], 93.3 ± 1%; in test [6] it was 42.7 ± 0.71%; in test [7], 92.3 ± 4.1%. Further, the maximal effect (Emax) in [8] was found to be 111 ± 1.3%; in [9] it was 83.8 ± 3.1%; in test [10] (HEK293, QRFPR E203^45.52A, HEK293, Fluo-4, mean ± S.E.M., n ≥ 3), 96.9 ± 0.64%; in [11], 1.42 ± 0.7%; in test [12], 73.4 ± 1.7%; in [14], 102 ± 1.7%. Moreover, the Emax in [15] is 1.84 ± 1.5%. The “role of amide-surrounding residues (C^2.57, T^2.61, Q^3.32, Q/H^7.39) in activity” value in test [2] was “critical for 26RFa and NPY/PP activities”. Also, in test [10] (26RFa, QRFPR), the “effect of E^45.52 to alanine” value is listed as “remarkable decline of activity or potency”. For the same substance, the “role of Q^3.32 and Q/H^7.39 in activity” value in [13] (26RFa, QRFPR) is recorded as “critical for the activity”. In addition, in test [13] (alanine substitution of W111^23.50 and two conserved cysteines (C118^3.25, C201^45.50)), the “effect of mutation on QRFPR activation” value is “notably hampered QRFPR activation”. The “role of residues in 26RFa-induced receptor activation” value in test [13] (residues around Arg25-Phe26-amide except I218^5.42 (E203, Q318, Y214, V129, F289, Q125, C98, F322)) is “essential for 26RFa-induced receptor activation”.
